Measured values: US7407914B2, “Herbicide composition” (Sumitomo Chemical Company, Limited, priority 2001, dated 2008)

Test system: broadleaf signalgrass
Test: Foliar spray herbicide effect test in greenhouse pots (Test Example 1)
Type: in vivo, Brachiaria platyphylla
Details: evaluated 5 days after treatment, level 0-10
Description: Evaluation of phytotoxicity against a crop was shown by “no” when almost no phytotoxicity was observed, “low” when a low level phytotoxicity was observed, “medium” when a medium level phytotoxicity was observed and “high” when a high level phytotoxicity was observed.
A plastic pot of 11 cm in diameter and 8 cm in depth was filled with field soil. A seed of broadleaf signalgrass was sown and grown in a greenhouse for 28 days.
An emulsion of Compound A-1 was prepared by sufficiently mixing […] of Compound A-1, 6 parts of Sorpol 3005× (surfactant, produced by Toho Chemical) and 89 parts of xylene.
Each of • single use of an emulsion of Compound A-1, • single use of a formulation of Flumioxazin (commercial name: Pledge, produced by Sumitomo Chemical, containing 50% of Flumioxazin), • single use of a formulation of Sulfentrazone (commercial name: Authority, produced by Du Pont, containing 75% of Sulfentrazone), • a mixed composition of an emulsion of Compound A-1 and a formulation of Flumioxazin, and • a mixed composition of an emulsion of Compound A-1 and a solution of Sulfentrazone • were diluted with water containing 1% Agri-dex (produced by Helena). […]
After the treatment, they were raised in a greenhouse for 5 days and the effect against weeds was evaluated. In addition, after 14 days of the treatment, the phytotoxicity to soybean was evaluated.

Cc1nn(-c2cc(NS(C)(=O)=O)c(Cl)cc2Cl)c(=O)n1C(F)F [Sulfentrazone, N-[2,4-dichloro-5-[4-(difluoromethyl)-4,5-dihydro-3-methyl-5-oxo-1H-1,2,4-triazol-1-yl]phenyl]methanesulfonamide]
Herbicide Effect Broad signalgrass (200 g/ha active ingredient): 1
Herbicide Effect Broad signalgrass (1200 g/ha active ingredient): 3
